What was measured:
[1] = Kinetic solubility by HPLC (pH 6.5); conditions: kinetic, HPLC, pH 6.5
Experimental: 1.7. Kinetic solubility by HPLC (pH 6.5)
Solubility was measured at pH 6.5 using an adapted miniaturized shake-flask method, in 96-well plate format.4,5 Briefly, 4 µL of a 10 mM stock in DMSO was added to a 96-well plate and evaporated using a GeneVac system. Phosphate buffer pH 6.5 was then added to the wells […]
At the end of this incubation, the […]
in the analysis plate. Analysis was then performed by HPLC-DAD and the solubility of each sample was determined from the corresponding calibration curve. […]

[2] = system: late-stage gametocytes (NF54-PfS16-GFP-Luc); experiment: Luciferase reporter assay, late-stage gametocytes; format: cell-based, Plasmodium falciparum
Experimental: (§1) All the complexes were tested for their early- and late-stage gametocyte activity in a dual-point assay (1 μM and 5 μM). […]
(§2) 1.5.In vitro activity against gametocyte stages
(§3) PfNF54 gametocytes were prepared and isolated according to the method reported by Reader […]
(§4) The in vitro gametocyte activity of the synthesized complexes was determined using a luciferase reporter line-based assay.
(§5) NF54-PfS16-GFP-Luc parasites were used for the stage-specific assessment of gametocytocidal activity. Early-stage gametocyte (stage I-III) experiments were performed on day 5 (representing >90% of early-stage and late-stage gametocyte (stages IV/V) experiments were performed on day 10. In each experiment, assays were set up with the use of 2-3% […]
(§6) Luciferase activity was determined in 30 µL parasite lysates by adding luciferin substrate (30 µL) (Promega Luciferase Assay System) at room temperature. […]

PfNF54 ABS parasites = experiment: SYBR Green I-based proliferative assay, PfNF54 ABS parasites; format: cell-based, Plasmodium falciparum; conditions: ABS, SYBR Green I, 96 h; mean ± S.E., N = 3 (no S.E.: N = 1)
Experimental: The parasites were incubated under drug […]
incubation, parasite survival was determined by adding equal volumes of parasite suspension (100 µL) and SYBR Green I lysis buffer (0.2% µL/mL of 10 000x SYBR Green I, 20 mM Tris-HCl, pH 7.5, 5 mM EDTA, 0.008% saponin (w/v) and 0.08% Triton x-100). This was incubated for 1 hour at room temperature in the dark. […]

[3] = system: early-stage gametocytes (NF54-PfS16-GFP-Luc); experiment: Luciferase reporter assay, early-stage gametocytes; format: cell-based, Plasmodium falciparum; conditions: single biological repeat
Experimental: as §1, §2, §3, §4, §5, §6

[4] = Single-point microsomal metabolic stability, human; format: in vitro ADME; conditions: human liver microsomes, 1 µM
Experimental: 1.8. Microsomal metabolic stability studies […]
rat IGS, Xenotech), and mouse (male mouse CD1, Xenotech) liver microsomes (0.4 mg/ml) for 30 min at 37 °C. Reactions were quenched by adding ice-cold acetonitrile containing […]
disappearance of the parent compound. Half-life, clearance, and hepatic excretion ratios were determined using standard equations.6,7 Propranolol. […]

[5] = Plasma protein binding by ultracentrifugation; format: in vitro ADME, human
Experimental: To determine the PK parameters, blood samples were collected from the tail vein of the mice into heparinized microcentrifugation tubes at distinct sampling times (0.17, 0.5, 1, 3, 5, 7, 9, 24, and 48 hours for intravenous dosing; 0.5, 1, 3, 5, 7, 9, 24 and 48 hours for oral dosing). All samples were stored at -80 °C until extraction.
For the bioanalysis, frozen whole blood was thawed at room temperature and 1-0 µL of each sample was extracted by protein precipitation (using 100 µL of acetonitrile containing 10 ng/ml of the internal standard, MMV394902). The sample was centrifuged. Supernatants of each sample were injected into the LC-MS/MS column for analysis. The analytical limit of quantitation (LOQ) was 2 ng/mL. The pharmacokinetic parameters were calculated using noncompartmental analysis using PK Solutions 2.0 (Summit Research Services, Montrose, CO, USA) and a curve stripping-based method.
1.10. […]
In preparation for the assay, the required membrane filters were precoated with hexadecane (5%) in hexane and were allowed to dry. […] The samples were analyzed using LCMS/MS (Agilent rapid resolution HPLC, AB SCIEX 4500 MS). The permeability (Papp) was calculated by using the normalized (analyte/internal standard) peak areas. Membrane integrity was calculated from the Papp of Lucifer yellow (acceptable values <50nm/s) using a Modulus microplate reader. […]

red blood cells (RBCs) = experiment: Hemolysis assay; format: cell-based; conditions: up to 10 μM, 1 and 72 h
Experimental: The hemolysis assay was conducted in a 96-well round-bottom plate. A 10 mM stock of the test compound in DMSO was diluted to 10 μM using complete growth medium. Complete growth medium (100 μL) was added to all wells in columns 1 and columns 3–12. The test compound in a complete growth medium (200 μL) were added in duplicate to well 2 and serially diluted two-fold down the plate (from wells 2–11). Triton X-100 (4%, v/v) was used as
RBCs in complete growth medium
(2% hematocrit) were lysed via three freeze/thaw cycles (-80 °C/37 °C) and were added to all wells in column 1 (100 µL). Intact RBCs in complete growth medium were added to wells 2– 12 and the plates were incubated at 37 °C for either 1 hour or 72 hours. After removing the plates from the incubator, each well was mixed thoroughly with a multichannel pipette and spun in a centrifuge at 750 rcf for 5 minutes. The supernatant was transferred to a 96-well flat-bottom plate and the absorbance of each well read on a microplate reader (Thermo Scientific
Percentage hemolysis was calculated using Equation 2 and the graphs generated using GraphPad Prism 10.
% ℎ𝑒𝑚𝑜𝑙𝑦𝑠𝑖𝑠 = (𝐴𝑠 ― 𝐴0) × 100 𝑬𝒒. 𝟐

Q: For `Nc1cc[n+]2c(c1)-c1cc(N)cc[n+]1[Pt-2]21[O+]=C(c2ccccc2)N=C(N(CCO)CCO)[S]1.[Cl-]` [C6], which “Aqueous solubility pH 6.5” value [1] is on record?
A: 100 μM

Q: And the “LG (% inhibition) 1 µM” value ([2]; 1 µM, single biological repeat)?
A: 42.3 % inhibition

Q: And the “LG (% inhibition) 5 µM” value ([2]; 5 µM, single biological repeat)?
A: 32.4 % inhibition

Q: What about the IC50 ([2]; late (IV/V) gametocytes, luciferase, 48 h, read-out: LG IC50) of the same compound?
A: > 20000 nM

Q: What about the IC50 (PfNF54 ABS parasites) of the same compound?
A: 36.3 ± 0.6 nM

Q: And the “EG (% inhibition) 1 µM” value ([3]; 1 µM)?
A: 13.7 % inhibition

Q: And the “EG (% inhibition) 5 µM” value ([3]; 5 µM)?
A: 20.1 % inhibition

Q: What about the “Microsomal metabolic stability (% remaining after 30 min) Human” value [4] of the same compound?
A: 43 % remaining

Q: What about the Fu ([5]; Fu = (100 – PPB)/100) of the same compound?
A: 0.01

Q: And the “PPB (% bound)” value ([5]; human plasma, 5 µM)?
A: 99% bound

Q: And the “in vitro hemolytic activity” value (red blood cells (RBCs))?
A: do not induce hemolysis
